# Experimental data: PMC10488149 (International Journal of Molecular Sciences, 2023)
# pKd: −log10 of the molar value.
# Assays:
# [1] = molecular target: T1, α1-acid glycoprotein (AGP) (Homo sapiens, UniProt P02763); format: binding
# Protocol: (§1) The Hill fitting was performed with OriginLab.
# (§2) The evaluation of molar enthalpies (ΔHm) and entropies (ΔSm) at the melting temperature for the melting process was calculated assuming a two-state native-to-unfolded model. The molar ratios at different temperatures were determined using the linear extrapolations of plateau at T >> Tm and T << Tm for the Boltzmann fitting curves, assuming that only denatured protein was present at T >> Tm and only native at T << Tm. The reversibility was assumed to be around Tm ± 5 °C, and the relative molar ratios for native and denatured species was used to determine the equilibrium constants and the associated Gibbs free energy (ΔGm, from ΔGm = −RT·lnK). Following the given relationship, ΔGm was supposed to be ~0 at the Tm (K^(Tm) ~ 1). ΔHm and ΔSm were calculated at Tm by interpolating with a linear model the ±5 °C region of the ΔGm vs. T curve around Tm, assuming the intercept corresponding to ΔHm, previous correction from °C to Kelvin, and the slope to −ΔSm, assuming a y = a − bx model, where ΔGm^(Tm) = ΔHm^(Tm) − TmΔSm^(Tm) at ΔGm^(Tm) = 0.
# (§3) For the thermal denaturations, Boltzmann fitting with the equation y = y0 + A * (frac/(1 + exp ((x − x01)/k1)) + (1 − frac)/(1 + exp((x − x02)/k2))) was used. The SRCD spectra as a function of temperature were recorded with B23 module B with synchrotron operation at 300 or 350 mA, using rotating cell for thermal denaturation with 0.02 cm cell pathlength, 0.5 mm slit, 1 sec integration time, and 1 nm increment in the 260–180 nm spectral region.
# [2] = molecular target: T1, α1-acid glycoprotein (AGP); assay: in vitro; details: isolated α1-acid glycoprotein (AGP) in solution
# Protocol: SRCD single-spectra and UV denaturation experiments were recorded on the module B unit at B23 (Diamond Light Source, Didcot, UK) using a 6-cell sample turret. The following are the experimental parameters for UV denaturation: 30 scans, 260–180 nm range, 0.5 mm slit, 1 s integration time, 1 nm increment. The thermal denaturation experiments were performed with an Applied Photophysics (APL) ChirascanPlus spectropolarimeter. […] The baseline of water or buffer was subtracted from the CD spectra of proteins with or without ligands. Far-UV (180–250 nm) denaturation SRCD measurements were collected in 0.02 cm rotating cells with a 70 μL volume. Thermal denaturations were recorded with both B23 beamline and ChirascanPlus (APL, Leatherhead, UK). For CD titration, the protocol used was to measure the CD spectrum of each protein–ligand mixture at various ligand molar ratios by adding a small aliquot of ligand (few microliters of an appropriate concentration of ligand stock solution) to the protein in the cuvette cell. […] The same method was used for the titration via fluorescence spectroscopy.
# The CD spectra were processed using CD Apps [27] and OriginPro. […] The evaluated parameters of melting temperature (Tm) were reported in °C and half-live (t1/2) for photo degradation in s (y = A1exp (−x/t1) + y0, t1/2 = t1log2). […]
# [3] = molecular target: T2, human serum albumin (HSA) (Homo sapiens, UniProt P02768); assay: Thermal denaturation followed by CD at 191 nm; format: binding; details: HSA with ligand
# T2 construct: purchased Sigma A3782
# T2 sequence (P02768 25-609): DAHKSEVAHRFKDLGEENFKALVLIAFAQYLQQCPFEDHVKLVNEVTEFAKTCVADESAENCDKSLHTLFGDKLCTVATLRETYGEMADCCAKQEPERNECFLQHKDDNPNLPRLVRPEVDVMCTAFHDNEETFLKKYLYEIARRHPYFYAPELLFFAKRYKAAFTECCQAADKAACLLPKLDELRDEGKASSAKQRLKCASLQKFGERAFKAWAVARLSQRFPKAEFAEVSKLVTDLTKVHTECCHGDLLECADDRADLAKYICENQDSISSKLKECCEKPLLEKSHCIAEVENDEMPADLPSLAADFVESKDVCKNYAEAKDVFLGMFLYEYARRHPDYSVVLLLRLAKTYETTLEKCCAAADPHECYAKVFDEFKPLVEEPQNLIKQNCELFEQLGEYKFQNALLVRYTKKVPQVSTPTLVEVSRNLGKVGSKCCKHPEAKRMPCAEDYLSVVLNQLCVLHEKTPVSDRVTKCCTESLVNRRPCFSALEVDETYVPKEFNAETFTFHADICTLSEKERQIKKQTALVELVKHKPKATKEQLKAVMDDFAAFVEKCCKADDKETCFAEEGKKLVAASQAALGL
# Protocol: as §1, §2, §3
# [4] = molecular target: T1, α1-acid glycoprotein (AGP); assay: Fluorescence titration
# Description: Fluorescence spectra were collected using an emission detector module of the ChirascanPlus spectropolarimeter (APL), fixing the PMU of the detector at 600 mV. For every measurement, a 1 cm quartz cell, which is suitable for CD and fluorescence, was used. Experimental details: 1 cm cell pathlength, 500–310 nm emission scan, λexc 305 nm, and 5 nm excitation bandwidth.
# T1 sequence (P02763 19-201): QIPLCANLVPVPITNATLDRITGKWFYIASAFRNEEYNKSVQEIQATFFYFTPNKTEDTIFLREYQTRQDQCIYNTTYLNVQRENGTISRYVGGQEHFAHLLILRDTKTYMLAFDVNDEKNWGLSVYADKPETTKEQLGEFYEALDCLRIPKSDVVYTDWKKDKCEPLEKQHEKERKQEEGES
Structure (SMILES),Tm (°C) [B] [1] [°C],"ΔHm, Tm ([1]; AGP with ligand, linear fitting around Tm, AGP alone 127.8) [kJ^.mol^−1]","ΔSm, Tm ([1]; AGP with ligand, linear fitting around Tm, AGP alone 392.1) [J·K^−1·mol^−1]",pKd [2],"Tm (°C) [A] ([3]; Boltzmann fitting of experimental data, 191 nm, HSA alone 74.1) [°C]","Tm (°C) [B] ([3]; T at which ΔGm,Tm = 0, 191 nm, HSA alone 67.3) [°C]","ΔHm, Tm ([3]; linear fitting around Tm, HSA alone 85.8) [kJ^.mol^−1]","ΔSm, Tm ([3]; linear fitting around Tm, HSA alone 252.3) [J·K^−1·mol^−1]",pKd ([4]; isolated α1-acid glycoprotein (AGP) in solution),pKd [4]
"Cc1c(N)nc([C@H](CC(N)=O)NC[C@H](N)C(N)=O)nc1C(=O)N[C@H](C(=O)N[C@H](C)[C@@H](O)[C@H](C)C(=O)N[C@H](C(=O)NCCc1nc(-c2nc(C(=O)NCCCCNC(=N)N)cs2)cs1)[C@@H](C)O)[C@@H](O[C@@H]1O[C@@H](CO)[C@@H](O)[C@H](O)[C@@H]1O[C@H]1O[C@H](CO)[C@@H](O)[C@H](OC(N)=O)[C@@H]1O)c1c[nH]cn1 [B2, bleomycin B2]",51.7,122.3,376.5,5.86,65.0,62.2,91.0,271.6,4.86,
"Cc1c(N)nc([C@H](CC(N)=O)NC[C@H](N)C(N)=O)nc1C(=O)N[C@H](C(=O)N[C@H](C)[C@@H](O)[C@H](C)C(=O)N[C@H](C(=O)NCCc1nc(-c2nc(C(=O)NCCC[S+](C)C)cs2)cs1)[C@@H](C)O)[C@@H](O[C@@H]1O[C@@H](CO)[C@@H](O)[C@H](O)[C@@H]1O[C@H]1O[C@H](CO)[C@@H](O)[C@H](OC(N)=O)[C@@H]1O)c1c[nH]cn1 [A2, bleomycin A2]",,,,,,,,,,4.88
